# Patent US20260008776A1 (HANGZHOU POLYMED BIOPHARMACEUTICALS, INC., priority 2023, published 2026)
# Assays:
# [1] = test system: MV4-11 cells; test: Killing activity against MV4-11 cells (CellTiter-Glo, CTG); type: cell-based; conditions: Homo sapiens, 72 hours incubation, read-out: IC50 of cell killing activity against MV4-11
# From the text: Reagent and consumable information is as follows: • MV4-11 Cells (ATCC, Cat. No. CRL-9591) • DPBS (Dulbecco's Phosphate Buffered Saline, Biosera, Cat. No. LM-S2041/500) • IMDM Medium (Thermo, Cat. No. 12440053) • Fetal Bovine Serum (Biological, Cat. No. 04-002-1A) • Penicillin-Streptomycin Solution (Invitrogen, Cat. No. 15140122) • Dimethyl Sulfoxide (Sigma, Cat. No. D2650) • CellTiter-Glo Luminescent Cell Viability Assay (Promega, Cat. No. G7573) • 96-Well Plate (Corning, Cat. No. 3903)
# 1. MV-4-11 cells were cultured in a complete IMDM medium (IMDM+10% fetal bovine serum+1% Penicillin-Streptomycin, a mixture of penicillin and streptomycin).
# 2. MV-4-11 cells with good cell status were collected and washed twice with DPBS (Dulbecco's phosphate buffered saline).
# 3. MV-4-11 cells were resuspended in a complete IMDM medium, adjusted to a cell density of 1.11×10^6 cells/mL, and 90 μL of the mixture was added to each well of a 96-well plate.
# 4. A 10-fold concentration of the compound solution was prepared in a complete IMDM medium, and 10 μL of the 10-fold concentration of the compound solution was added to each well of the 96-well plate. After mixing well, the 96-well plate was incubated in a 37° C., 5% CO2 incubator for 72 hours.
# 5. […]
# 6. The 96-well plate was removed and equilibrated at room temperature for 10 minutes, and then the chemiluminescence value was measured using a microplate reader.
# [2] = Pharmacokinetic test in rats, oral gavage; type: in vivo, Sprague-Dawley rats; conditions: male, Sprague-Dawley, rat, 40 mg/kg, rats, PO, 40 mpk, single dose, plasma
# Procedure: (§1) Subsequently, 976 μL of Tween 80 was added and vortexed for 30 seconds, followed by the addition of 488 μL of Kolliphor HS15 (Kolliphor HS15 was used after heating and melting at 50° C.) and vortexed for 30 seconds. Finally, 7808 L of saline was added and vortexed for 30 seconds, followed by ultrasonication for 10 seconds to remove bubbles. The resulting administration preparation was a suspension.
# as §1, with “1034” for “976”, “517” for “488”, “8270 μL” for “7808 L”
# Species and Strain: Sprague-Dawley rats (SD rats) (Zhejiang Vital River Laboratory Animal Technology Co., Ltd.) • Animal Grade: SPF level
# Planned initial body weight for administration: Male 200-250 g. Actual animal weights will be listed in the raw records. • Number and Gender of Animals: 3 (3 per group), male
# Based on measured body weights, animals with similar weights were divided into groups of 3 animals each. Blank group animals were used for the collection of blank biological matrices.
# • Administration route: Oral gavage • Administration volume: 10 mL/kg • Administration frequency: Single dose • Administration method: The test sample was administered orally via gavage using an appropriate syringe and gavage tube. When using a 2 mL or 5 mL syringe, the administration volume was recorded to one decimal place. When the minimum graduation value of the syringe was 0.2 mL and the administration volume was between two graduation marks, the higher volume was selected for administration.
# Sample collection: Approximately 0.30 mL of whole blood was collected from the orbital vein of Group 1 animals at each time point.
# The experimental animals were fasted for 12 hours before administration, with free access to water. Blood samples were collected from Group 1 animals (oral gavage group) at 5 min, 15 min, 30 min, 1 h, 2 h, 4 h, 6 h, 8 h, and 24 h after administration.
# Sample processing: The collected venous blood was immediately transferred to EDTA-Na2-coated EP tubes (stored in a refrigerator or in an ice box with crushed ice at 2-8° C. prior to use), inverted at least 5 times for thorough mixing, and temporarily stored in an ice box with crushed ice. The collected whole blood was centrifuged at 2000 g for 10 min under 2-8° C. conditions within 2 h to separate plasma, which was then placed in newly labeled centrifuge tubes and stored at −20° C.
# The pharmacokinetics group of the Department of Pharmacology and Toxicology conducted the analysis and measurement of all samples, followed by data summarization. Plasma concentration data were analyzed using the pharmacokinetic data analysis software WinNonlin. Non-compartmental analysis (NCA) was employed to calculate pharmacokinetic parameters such as t1/2, Cmax, Tmax, Vd, CL, AUC0-24, and F. The detailed results are shown in the following table: […]
# [3] = Crystal form transformation, suspension competition experiments; type: physicochemical; conditions: C, D, E, RT; for XRPD of solid after suspension competition: crystal forms A, G together (20 mg each), EtOH/H2O 1/1 (v/v); for XRPD: suspension competition of crystal forms A, G (20 mg each), DMSO/EtOH 1/8 (v/v) saturated solution 15 V
# Procedure: In order to study the transformation relationship between various crystal forms and prepare various crystal forms under repeated conditions, a series of suspension competition experiments were carried out on crystal forms A, C, D, E, and G in different solvent systems. The specific experimental steps are as follows:
# 20 mg of each of crystal forms A, C, D, E, and G were weighed into 5 mL glass vials, and solvents (EtOH/H2O=1/1 (v/v) or DMSO (dimethyl sulfoxide)/EtOH=1/8 (v/v)) were added to form suspensions. The vials were then transferred to 25° C. and stirred for 72 hours. At various time points, the filter cakes were tested by XRPD.
# [4] = Solid-state stability study, influencing factor test of crystal form A; type: physicochemical
# Procedure: The glass dish or glass vial was then subjected to different environments in a constant temperature and humidity chamber. The conditions include: illumination: 4500±500 Lux; high temperature: 60° C. (sealed); and high humidity: 25° C. with relative humidity RH=90±5% (open).
# [5] = Simulated granulation test (dry and wet grinding); type: physicochemical; conditions: dry grinding 30 minutes; wet grinding with ethanol 30 minutes
# From the text: The purpose was to determine whether polymorphs, solvates, or amorphous forms were readily generated.
# [6] = High-pressure property test; type: physicochemical; conditions: hydraulic pressure 10 tons, 5 minutes
# From the text: The resulting solid was characterized by XRPD and other methods to evaluate its crystal form stability under high-pressure conditions.
# [7] = Hygroscopicity study of crystal form A by dynamic vapor sorption (DVS); type: physicochemical; conditions: for Desorption (%) / Sorption (%): DVS
# Procedure: The important hygroscopicity of this compound was tested using a dynamic vapor sorption (DVS) instrument. DVS is a dynamic measurement method, so during the measurement process, the sample will undergo a change in mass. Like other types of research methods, DVS records the change in mass of the sample as the relative humidity changes.
smiles,measurement,setting,value
CC(C)(O)CCn1cc2cc(NC(=O)c3coc(-c4ccnc(C(F)(F)F)c4)n3)c(C(C)(C)O)cc2n1 [formula I],IC50,[1],21 nM
same,AUC(0-t),[2]; read-out: AUC0-24,4880 ng·h/mL
same,Cmax,[2]; read-out: Cmax,934 ng/mL
CC(C)(O)CCn1cc2cc(NC(=O)c3coc(-c4ccnc(C(F)(F)F)c4)n3)c(C(C)(C)O)cc2n1 [crystal form A],XRPD of solid after suspension competition,[3]; 24 hours,Crystal Form C
same,XRPD of solid after suspension competition,[3]; 48 hours,Crystal Form C
same,XRPD of solid after suspension competition,[3]; 72 hours,Crystal Form C
same,XRPD,[3]; 24 hours,Crystal Form A
same,XRPD,[3]; 48 hours,Crystal Form A
same,XRPD,[3]; 72 hours,Crystal Form A
same,Purity,"[4]; High Relative Humidity (RH = 90 ± 5%, Open, 25° C.), 5 Days",99.60%
same,Purity,"[4]; High Relative Humidity (RH = 90 ± 5%, Open, 25° C.), 11 Days",99.56%
same,Purity,"[4]; High Temperature (60° C., Sealed), 5 Days",99.26%
same,Purity,"[4]; High Temperature (60° C., Sealed), 11 Days",99.67%
same,Purity,"[4]; Strong Illumination (Open), 5 Days",99.67%
same,Purity,"[4]; Strong Illumination (Open), 11 Days",99.44%
same,Solid-state stability evaluation,"[4]; illumination 4500±500 Lux, 60° C. sealed, 25° C. RH=90±5% open",good physical and chemical properties
same,Purity,"[4]; initial, before stress",99.70%
same,"Crystal form after simulated granulation (XRPD, DSC)",[5],have not changed
same,Crystal form after high-pressure treatment (XRPD),[6],has not changed
same,Change in crystal form before and after DVS testing (XRPD),[7],no change in crystal form
same,"Hygroscopicity (DVS), in words","[7]; 25° C., up to 90 RH",low hygroscopicity
same,Moisture sorption (DVS),"[7]; 25° C./90 RH, two sorption-desorption curves",less than 0.0400
same,Desorption (%),"[7]; first cycle, 0% RH",−0.01%
same,Sorption (%),"[7]; first cycle, 0% RH",0.00%
same,Desorption (%),"[7]; first cycle, 10% RH",0.00%
same,Sorption (%),"[7]; first cycle, 10% RH",−0.01%
same,Desorption (%),"[7]; first cycle, 20% RH",0.00%
same,Sorption (%),"[7]; first cycle, 20% RH",0.00%
same,Desorption (%),"[7]; first cycle, 30% RH",0.00%
same,Sorption (%),"[7]; first cycle, 30% RH",0.00%
same,Desorption (%),"[7]; first cycle, 40% RH",0.01%
same,Sorption (%),"[7]; first cycle, 40% RH",0.00%
same,Desorption (%),"[7]; first cycle, 50% RH",0.02%
same,Sorption (%),"[7]; first cycle, 50% RH",0.01%
same,Desorption (%),"[7]; first cycle, 60% RH",0.02%
same,Sorption (%),"[7]; first cycle, 60% RH",0.01%
same,Desorption (%),"[7]; first cycle, 70% RH",0.03%
same,Sorption (%),"[7]; first cycle, 70% RH",0.02%
same,Desorption (%),"[7]; first cycle, 80% RH",0.03%
same,Sorption (%),"[7]; first cycle, 80% RH",0.03%
same,Desorption (%),"[7]; first cycle, 90% RH",0.03%
same,Sorption (%),"[7]; first cycle, 90% RH",0.03%
same,Desorption (%),"[7]; second cycle, 0% RH",−0.01%
same,Sorption (%),"[7]; second cycle, 0% RH",−0.01%
same,Desorption (%),"[7]; second cycle, 10% RH",−0.01%
same,Sorption (%),"[7]; second cycle, 10% RH",−0.01%
same,Desorption (%),"[7]; second cycle, 20% RH",0.00%
same,Sorption (%),"[7]; second cycle, 20% RH",−0.01%
same,Desorption (%),"[7]; second cycle, 30% RH",0.00%
same,Sorption (%),"[7]; second cycle, 30% RH",−0.01%
same,Desorption (%),"[7]; second cycle, 40% RH",0.01%
same,Sorption (%),"[7]; second cycle, 40% RH",0.00%
same,Desorption (%),"[7]; second cycle, 50% RH",0.01%
same,Sorption (%),"[7]; second cycle, 50% RH",0.01%
same,Desorption (%),"[7]; second cycle, 60% RH",0.02%
same,Sorption (%),"[7]; second cycle, 60% RH",0.01%
same,Desorption (%),"[7]; second cycle, 70% RH",0.03%
same,Sorption (%),"[7]; second cycle, 70% RH",0.02%
same,Desorption (%),"[7]; second cycle, 80% RH",0.03%
same,Sorption (%),"[7]; second cycle, 80% RH",0.02%
same,Desorption (%),"[7]; second cycle, 90% RH",0.03%
same,Sorption (%),"[7]; second cycle, 90% RH",0.03%
same,Moisture Sorption,"[7]; at 90% RH, DVS 25° C.",Moisture Sorption of 0.03% at 90% RH
